What all share (format): cell-based, human
In test [1] the test system is hMSC aggregates. Description: Cell survival and packing density of aggregates by DNA content (PicoGreen).
Method: The DNA content of the individual aggregates was used to calculate cell number. Briefly, individually collected hMSC aggregates were washed with phosphate buffered saline (PBS) and digested with proteinase K overnight. PicoGreen (Life Technologies) was added to triplicate samples and a DNA standard in a 96-well plate. The cell numbers in aggregates were determined by the PicoGreen fluorescence intensity using 9.3 pg/cell as determined in our prior study (Kim and Ma 2012). […] The packing densities were calculated using cell number divided by aggregate volume assuming a spherical shape. At least six aggregates were used in each condition.
A further test deals with IL-6. Description: Secreted IL-6 in conditioned media (ELISA). The following applies: treated 3D aggregates. (In an ELISA, binding on a coated surface is turned into a signal by an enzyme label.)
The subject of the next test is PGE-2. The test is described as follows: Secreted PGE-2 in conditioned media (Parameter Assay Kit). The note with it: treated 3D aggregates.
Test [2] relates to hMSC aggregates. Description: hMSC aggregate formation and compaction (aggregate size) with cytoskeleton modulators. The note with it: for aggregate compaction vs non-treated control: nocodazole 3D treatment; for aggregate compaction / aggregate diameter: 0.2 to 0.6 μM. More on the design: aggregate compaction vs non-treated control: dose or concentration left out as unconfirmed. The method, then: hMSCs from monolayer culture were trypsinized and 100 μL media containing 5,000 cells were added in each well of an ultra-low attachment (ULA) 96-well plate with round-bottom (Corning, Corning, N.Y.) for overnight. To analyze size-dependent ATP contents, aggregates containing 500, 2,000, and 5,000 cells were used following the same method. Suspended single hMSCs spontaneously self-assembled into one aggregate per well. Aggregates were cultured individually up to 7 days with media change every two days. The aggregates were tracked individually and the morphologies were imaged with an Olympus IX70 microscope (Center Valley, Pa.).
Cytochalasin D (cytoD), lysophosphatidic acid (LPA), Y-27632, nocodazole were added into culture media to final concentrations of 0.2 to 0.6 μM, 2.0 to 10.0 μM, 2.0 to 10 μM, and […], respectively. To test the temporal effects of actin modulators on aggregate formation, cells were treated with media containing cytoD and LPA during monolayer culture prior to aggregate formation (termed “2D Pretreatment”) or 12 hours after aggregate formation in ULA plates (termed “3D Treatment). Only 3D treatments were performed for Y-27632 and nocodazole.
Morphology of the aggregates was visualized using an Olympus IX70 microscope and the images recorded. The images were processed and the areas of the individual aggregates were calculated using ImageJ software (rsb.info.nih.gov/ij/). The DNA content of the individual aggregates was used to calculate cell number. Briefly, individually collected hMSC aggregates were washed with phosphate buffered saline (PBS) and digested with proteinase K overnight. PicoGreen (Life Technologies) was added to triplicate samples and a DNA standard in a 96-well plate. The cell numbers in aggregates were determined by the PicoGreen fluorescence intensity using 9.3 pg/cell as determined in our prior study (Kim and Ma 2012). DNA assay detects double-stranded DNA that may also be present in dead cells with intact DNA. However, this population in the aggregates is low, and the yield of live cells measured by DNA assay is close to cell count using other methods such as flow cytometry (Ylostalo et al. 2014). The packing densities were calculated using cell number divided by aggregate volume assuming a spherical shape. At least six aggregates were used in each condition.

For test [3], the system named is hMSC aggregates. The test is described as follows: Morphology by SEM, H&E histology and F-actin staining. The note with it: for hMSC morphology on 2D planar surface (F-actin staining): nocodazole treatment; for cell morphology in the aggregates (SEM and histology) / outer boundary of aggregates (H&E, F-actin staining of sections): treated aggregates vs control aggregates. The protocol:
For SEM, the aggregate samples were fixed in 4% paraformaldehyde (PFA), dehydrated through a graded series of ethanol, incubated in hexamethyldisilazane, and vacuum dried overnight. The samples were mounted onto carbon-coated chucks, sputter-coated with gold in an argon atmosphere for 4 minutes at 2 kV, and analyzed on a SEM (JSM-7401F) (JEOL, Tokyo, Japan). For immunostaining, the cells were fixed with 4% PFA, permeabilized with 0.5% Triton X-100, blocked with 1.0% BSA, incubated with primary antibody, and imaged with an Olympus IX70 (Center Valley, Pa.) microscope. For histology, hematoxylin-eosin (H&E) staining was performed following the prior reported method (Kim and Ma 2012). hMSC aggregates were fixed in 10% formalin, dehydrated and embedded in paraffin wax; 10 μm sections were cut and stained with Lerner-2 Hematoxylin (Lerner Laboratories, Pittsburgh, Pa.) and Eosin-Y w/ Phloxine (Richard-Allan Scientific, Kalamazoo, Mich.) by standard procedures (Kim and Ma 2012). Images were captured with Olympus IX70 microscope with MagnaFire SP 2.1B software.

The test system of test [4] is hMSC aggregates. Description: Aggregate spreading on glass coverslip and fusion on ULA surface. The note with it: for aggregate spreading on glass coverslip / fusion of adjacent aggregates on ULA surface: aggregates treated for 5 days. The protocol:
To test re-adhesion and fusion, the aggregates from various treatment conditions were plated on glass coverslip for re-adhesion or placed adjacently on ULA surface for fusion. Images were captured with Olympus IX70 microscope and analyzed by ImageJ software.

Test [5] concerns hMSC aggregates. Description: hMSC aggregate formation and compaction (aggregate size) with cytoskeleton modulators. The following applies: cytoD 2D pretreatment, concentration above 0.6 μM (high concentration).
The test system of a further test is Caspase 3/7. Description: Caspase-Glo 3/7 assay. The following applies: for caspase 3/7 activity in 3D aggregates: normalized to cell number.
[6] abbreviates: Q-VD-OPh, after three days of culture.
[7] abbreviates: 0.6 μM cytoD 3D treatment, day 5.

“Also recorded” adds a separate entry of the source.

Method for Caspase 3/7: (§1) Caspase 3/7 activity was measured by Caspase-Glo 3/7 assay systems (Promega, Madison, Wis.). Caspase-Glo 3/7 working buffer was added to triplicate samples containing aggregates and culture media in 96-well [sequence] 200 white immunology plate (Greiner Bio-One, Monroe, N.C.). The results were read by a luminescence plate reader and normalized to cell number (Biotek Instruments, Winooski, Vt.). Secreted PGE-2 and IL-6 in conditioned media were quantified using a PGE-2 Parameter Assay Kit and IL-6 DuoSet ELISA kits, respectively (R&D Systems, Minneapolis, Minn.). Total secreted PGE-2 and IL-6 were determined by subtracting cytokine concentrations in culture media controls and normalized to the cell number in the aggregates.
Method for IL-6: as §1
Method for PGE-2: as §1

`CC(C)[C@H](NC(=O)c1ccc2ccccc2n1)C(=O)N[C@@H](CC(=O)O)C(=O)COc1c(F)cccc1F` [Q-VD-OPh]: in the test with hMSC aggregates [1] (setting [6]), the “cell packing density vs control” value is listed as “increased cell packing density; also recorded: higher packing density” and the “cell viability / survival vs control” value was “improved cell survival; also recorded: significantly increased cell viability”. In addition, the “IL-6 secretion of 3D aggregates” value in the test with IL-6 is on record as “attenuated to basal levels”. For the same molecule, in the test on PGE-2, the “PGE-2 secretion of 3D aggregates” value is given as “attenuated to basal levels”. Also, the “aggregate compaction vs control” value in the test on hMSC aggregates [2] (setting [6]) was “significantly reduced cell compaction”.

Regarding `COC(=O)Nc1nc2cc(C(=O)c3cccs3)ccc2[nH]1` [nocodazole], the results for the “hMSC morphology on 2D planar surface (F-actin staining)” value in the test on hMSC aggregates [3] and with hMSC aggregates [3] (listed as Nocodazole) were “drastic changes of cell morphology” and “significantly altered hMSC morphology”, respectively. Further, the figures for the “aggregate compaction vs non-treated control” value with hMSC aggregates [2] and in the test on hMSC aggregates [2] (listed as Nocodazole) were “comparable contractility with control aggregates; also recorded: comparable or higher compaction” and “faster compaction”, respectively. For the same molecule, the “aggregate spreading on glass coverslip” value in the test on hMSC aggregates [4] is “readily spread on adherent surface; also recorded: readily re-adhered and spread on glass coverslips; also recorded: spread on glass coverslip”. The “fusion of adjacent aggregates on ULA surface” value (shortened to “fusion of adjacent aggregates”) in the test on hMSC aggregates [4] is given as “fuse with neighboring aggregates; also recorded: fused when adjacently placed on ULA surface; also recorded: readily fused”.

As to `C=C1[C@@H](C)[C@H]2[C@H](Cc3ccccc3)NC(=O)[C@]23[C@H](OC(C)=O)/C=C/[C@@](C)(O)C(=O)[C@@H](C)C/C=C/[C@H]3[C@@H]1O` [cytoD, Cytochalasin D], the “cell viability / cell survival vs control aggregates” value in the test on hMSC aggregates [1] (setting [7]) is listed as “significantly reduced cell viability; also recorded: significantly lower cell survival”. For the same molecule, the “packing density vs control aggregates” value in the test with hMSC aggregates [1] (setting [7]) is recorded as “significantly reduced; also recorded: significantly lower”. For the same molecule, the “IL-6 secretion of 3D aggregates” value with IL-6 is given as “limited effects”. Moreover, the “PGE-2 secretion of 3D aggregates” value with PGE-2 is listed as “limited effects”. In addition, the “hMSC aggregation (aggregate formation)” value is on record as “disrupted hMSC aggregation” in the test on hMSC aggregates [5] and “prevented hMSC aggregation” with hMSC aggregates [5] (listed as CytoD). In addition, the “cell morphology in the aggregates (SEM and histology)” value in the test with hMSC aggregates [3] is “large interstitial space and exhibit round morphology; also recorded: loosely packed and exhibited spherical morphology with abundant interstitial space”. The “outer boundary of aggregates (H&E, F-actin staining of sections)” value in the test with hMSC aggregates [3] is on record as “loosely packed with no spreading at the boundary”; with hMSC aggregates [3] (listed as CytoD) it was “disintegrated outer boundaries; also recorded: discontinuous outer boundary”; in the test with hMSC aggregates [3] (listed as cytochalasin D) it was “disrupted the mechanically polarized outer layer”. Also, the “caspase 3/7 activity in 2D adherent culture” value in the test with Caspase 3/7 is given as “significantly increased caspase 3/7 activity”. In the test on Caspase 3/7, the “caspase 3/7 activity in 3D aggregates” value is “comparable apoptotic activity”. Also, the aggregate compaction result in the test on hMSC aggregates [2] (cytoD 2D pretreatment, lower concentrations) is recorded as “prevented aggregate compaction”; with hMSC aggregates [2] (cytoD 2D pretreatment, lower concentrations, listed as CytoD), “reduced compaction”. The aggregate integrity result with hMSC aggregates [2] (cytoD 3D treatment, 0.6 μM) is “remained intact”. Besides, the “aggregate compaction / aggregate diameter” value was “dose-dependent reduction on compaction” with hMSC aggregates [2] (cytoD 3D treatment) and “reduced compaction; also recorded: Dose-dependent decline of aggregate diameters” with hMSC aggregates [2] (cytoD 3D treatment, listed as CytoD). Moreover, in the test with hMSC aggregates [4], the “aggregate spreading on glass coverslip” value is reported as “abolishes; also recorded: did not spread on glass coverslips; also recorded: completely prevented aggregate spreading on glass coverslip”. In addition, in the test on hMSC aggregates [4], the “fusion of adjacent aggregates” value is listed as “abolishes; also recorded: nor fused; also recorded: completely prevented”. Besides, the “fusion and adhesion properties of hBMSC aggregates” value in the test with hMSC aggregates [4] (hBMSC aggregates on ULA plates / glass) was “abrogated their fusion and adhesion properties; also recorded: abrogates these properties”.

Turning to `C[C@@H](N)[C@H]1CC[C@H](C(=O)Nc2ccncc2)CC1` [Y-27632], in the test on hMSC aggregates [1] (10 μM Y-27632, 5 days of treatment), the “cell viability / cell survival vs control aggregates” value is recorded as “lower than non-treated control; also recorded: comparable or even less”. The “decrease in cell packing density compared to control aggregates” value with hMSC aggregates [1] (10 μM Y-27632, day 5) is 38.7%. Moreover, the “cell packing density vs control (in words)” value in the test on hMSC aggregates [1] (Y-27632, day 5) is on record as “significantly lower”. The “IL-6 secretion of 3D aggregates” value in the test on IL-6 is listed as “limited effects”. The “PGE-2 secretion of 3D aggregates” value with PGE-2 was “limited effects”. Further, in the test with hMSC aggregates [3], the “cell morphology in the aggregates (SEM and histology)” value was “large interstitial space and exhibit round morphology; also recorded: loosely packed and exhibited spherical morphology with abundant interstitial space”; the “outer boundary of aggregates (H&E, F-actin staining of sections)” value was “disintegrated outer boundaries; also recorded: discontinuous outer boundary; also recorded: loosely packed with no spreading at the boundary”. Besides, in the test with Caspase 3/7, the “caspase 3/7 activity in 2D adherent culture” value is reported as “increased caspase 3/7 activity” and the “caspase 3/7 activity in 3D aggregates” value is listed as “highest caspase 3/7 activity; also recorded: increased caspase 3/7 activity”. Moreover, the “increase in aggregate diameter compared to control aggregates” value in the test on hMSC aggregates [2] (10 μM Y-27632, day 5) was determined as 6.7%. For the same molecule, the aggregate compaction result in the test on hMSC aggregates [2] (Y-27632 3D treatment, 10 μM) was “prevented aggregate compaction; also recorded: reduced aggregate compaction”. For the same molecule, in the test with hMSC aggregates [4], the “aggregate spreading on glass coverslip” value was “readily re-adhered and spread on glass coverslips”; the “fusion of adjacent aggregates” value was “fused when adjacently placed on ULA surface; also recorded: reduced tendency to fuse”.

Consider lysophosphatidic acid [LPA], for which, in the test on hMSC aggregates [1] (LPA up to 10 μM, 5 days 3D treatment), the “viability / cell survival vs control” value was “comparable cell survival; also recorded: limited effects”. Also, in the test on hMSC aggregates [1] (LPA, 5 days 3D treatment), the “cell packing density vs control” value is listed as “comparable”. In addition, in the test on Caspase 3/7, the “caspase 3/7 activity in 2D adherent culture” value is “increased caspase 3/7 activity” and the “caspase 3/7 activity in 3D aggregates” value was “increased caspase 3/7 activity”. Also, the “aggregate compaction vs control” value in the test with hMSC aggregates [2] (LPA up to 10 μM, 2D pretreatment and 3D treatment) is “minimal impact on aggregate compaction; also recorded: declined at the same rate as control; also recorded: limited effects”. Besides, in the test with hMSC aggregates [4], the “aggregate spreading on glass coverslip” value was “readily re-adhered and spread on glass coverslips; also recorded: spread on glass coverslip”; the “fusion of adjacent aggregates” value is on record as “fused when adjacently placed on ULA surface; also recorded: readily fused”.

Values taken from patent publication US11781114B2, “Materials and methods for expansion of stem cells” (FLORIDA STATE UNIVERSITY RESEARCH FOUNDATION, INC., priority 2014, dated 2023).
